Source: US7271239B2, “D-isomers of antimicrobial peptide” (The Research Foundation of State University of New York, priority 2004, dated 2007)
≈ marks a conversion by molar mass, not a printed value. Where “and” joins values, the source holds several entries; their conditions need not be identical. Equal values may be shown once. Read-outs that look alike come from different tables or passages of the source. Where a SMILES comes first, the peptide text is derived from it. Where no end group is shown, it is not given here. [ ]: non-standard residue; d: D form.

Key:
trypsin = experiment: Susceptibility of peptides to trypsin (SDS-PAGE); type: in vitro ADME
Description: (§1) FIGS. 3A and 3B. Stability of antimicrobial peptides in (3A) Trypsin and (3B) unclarified saliva. Each peptide (3 μg in 5 μl of 0.5 M Tris-HCl buffer pH 7.5) was incubated with: 0.2 μg/ml trypsin containing PIC or no PIC for 0.5 h; or saliva (10 μl) for 1 h. The control of each compound was also incubated with Tris-HCl buffer in parallel. The samples were analyzed by 13% SDS-PAGE. The gel was stained with Coomassie brilliant blue and further analyzed for the peptide degradation by GS-700 Imaging Densitometer. The degradation was estimated by the equation: 1−(density of test band/density of control band)×100%. Ctrol: each peptide alone; T: trypsin plus peptide; T+PIC: trypsin containing PIC plus peptide; S: saliva plus peptide; S+PIC: saliva containing PIC plus peptide.
(§2) Stability of peptides in saliva and susceptibility of septides to trypsin. Three microliters of each peptide (MUC7 12-mer-D, MUC7 12-mer-L, Hsn5 12-mer, or Magainin-II, at 1 μg/μl in 0.2 M Tris-HCl buffer pH 7.5) were incubated with 11 μl of 0.2 μg/ml trypsin or saliva. This gave a final concentration of 0.16 μg/ml for trypsin, and 0.2 μg/μl for peptides (or 127, 127, 128, and 81 μM, for MUC7 12-mer-D, MUC7 12-mer-L, Hsn5 12-mer, or Magainin II, respectively). The reactions, without PIC (water instead or PIC) or with 1×PIC [50% (v/v)] were incubated 0.5 h with trypsin, and 1 hr with saliva (clarified or unclarified) at 37° C. The control of each compound was also incubated with Tris-HCl buffer in parallel. The samples were analyzed by 13% SDS-PAGE. Gels was stained with Coomassie brilliant blue R-250 and further analyzed for the peptide degradation by GS-700 Imaging Densitometer (Bio Red). The degradation was estimated by the equation: 1−(density of test band/density of control band)×100%.

[1] = Stability of peptides in saliva (SDS-PAGE); type: in vitro ADME, human
Description: as §1, §2

S. mutans = experiment: microbe, parasite or virus in culture
Excerpt: (§3) The bacteria used in this study included Streptococcus mutans ATCC10449, Streptococcus mutans AU 159, Streptococcus mutans GS-5, Streptococcus mutans GS-5 mutant (^gtf BCD), Streptococcus gordonii Challis, Porphyromonas gingivalis W50, Porphyromonas gingivalis 381, A. actinomycetemcomitans NCTC 9710, Pseudomonas aeruginosa ATCC 17648, and Escherichia coli HB101. One quarter strength (25%) of brain heart infusion broth (BHI, DIFCO Laboratories, Detroit, Mich.) was used for the growth of S. mutans, S. gordonii, A. actinomycetemcomitans, Ps. aeruginosa, and E. coli. For growth of P. gingivalis, tryptic soy broth-yeast extract medium (TSBY, DIFCO Laboratories, Detroit, Mich.) supplemented with cysteine hydrochloride (0.05%), menadione (0.02 μg/ml), hemin (5 μg/ml), and potassium nitrate (0.02%) was used. All bacteria were cultured at 37° C.; Ps. aeruginosa and E. coli were grown aerobically, and the other bacteria, anaerobically. To prepare bacterial cell suspension for antibacterial activity assays, each overnight culture was harvested by centrifuge (3783 g, 10 min), washed once with 10 mM sodium phosphate-buffered saline (PBS, pH 7.2), resuspended in PBS and adjusted to a concentration of 1×10^6 cells/mL.
(§4) MICs of the peptides were determined by broth microdilution method as previously described (5). Briefly, two-fold serial dilutions of each peptide were prepared with 25% BHI medium at a volume of 200 μl per well in 96-well flat-bottom microtiter plates (Costar, Cambridge, Mass.). The final concentration of the peptides ranged from 0.78 to 100 μM, and chlorhexidine (CHX), used as a positive control, from 20 to 0.16 μM (10 to 0.078 μg/mL). The microtiter plate was inoculated with bacterial cell suspension with final concentration of 5×10^6 CFU/mL for P. gingivalis and 5×10^5 CFU/mL for the other bacterial species. After incubation at 37° C. for 48 h, the absorbance was measured at 595 nm by using a microplate reader (Model 3550, Bio-Rad, Japan) to assess the cell growth. […] The MIC value represents the median of at least three independent experiments. The minimal bactericidal concentration (MBC) was determined as follows. Aliquot (100 μl) of cell suspension was taken from two wells above MIC, centrifuged, and washed three times with PBS. Then each cell suspension was plated on TSBY agar plate, and bacterial cells were enumerated after incubation at 37° C. for 48 h. The MBC was defined as the lowest concentration of the peptide at which more than 99.9% of cells were killed compared to non-treated control.

[2] = tested on: Ps. aeruginosa ATCC 17648; experiment: microbe, parasite or virus in culture; type: cell-based, Pseudomonas aeruginosa; conditions: for MBC / MIC: Pseudomonas aeruginosa, ATCC17648
Excerpt: as §3, §4

[3] = tested on: S. mutans GS-5 1-day biofilm; type: cell-based, Streptococcus mutans
Description: FIG. 12. Effect of peptides on 1-day biofilm of S. mutans. One-day mature biofilm was prepared as described above. BHI medium supplemented with 1% sucrose (BHIS) with peptides, prepared in another microtiter plate, was then transferred to the biofilm plate. After further incubation at 37° C. for 24 h, the biofilm was fixed, stained, and quantified as describe above. Data represents mean and SD of two independent tests performed in duplicated. Empty bar: growth, solid bar: biofilm.
To examine the effects of the peptides on 1-day mature biofilm, S. mutans GS-5 was inoculated into the wells of another polystyrene microtiter plate containing BHIS at a volume of 200 μl per well. After incubation at 37° C. for 24 h, the culture supernatants from each well were decanted and planktonic cells were removed by washing with PBS. BHIS containing 0.78 to 100 μM peptides, prepared in another microtiter plate, was then transferred to the 1-day biofilm plate, and further incubated at 37° C. for one day. The biofilm was fixed, stained, and quantified as describe above.

P. gingivalis = experiment: microbe, parasite or virus in culture; type: cell-based, Porphyromonas gingivalis; conditions: for MBC / MIC: Porphyromonas gingivalis
Excerpt: as §3, §4

S. gordonii Challis = experiment: microbe, parasite or virus in culture; type: cell-based, Streptococcus gordonii; conditions: for MBC / MIC: Streptococcus gordonii
Excerpt: as §3, §4

[4] = tested on: A. actinomycetemcomitans NCTC 9710; experiment: microbe, parasite or virus in culture; type: cell-based; conditions: for MBC / MIC: Aggregatibacter actinomycetemcomitans, NCTC9710
Excerpt: as §3, §4

[5] = median of four strains (GS-5, GS-5 gtfBCD, AU 159, ATCC10449), 25% BHI, 48 h
[6] = lowest concentration with 50% or more eradication of 1-day biofilm
[7] = median of two strains (W 50, 381)

Compound	degradation by trypsin (trypsin)	degradation by saliva [1]	MBC (μM) (S. mutans; median of four strains) [µM]	MIC (S. mutans; [5]) [µM]	MBC (μM) ([2]; ATCC 17648) [µM]	MBC (μg/ml) ([2]; ATCC 17648) [µg/mL]	MIC (μM) ([2]; ATCC 17648) [µM]	MBEC50 (μM) ([3]; GS-5 1-day biofilm, 24 h) [µM]	MIC (μM) (P. gingivalis) [µM]	MBC (μM) (S. gordonii Challis) [µM]	MIC (μM) (S. gordonii Challis) [µM]	MBC (μM) ([4]; NCTC 9710) [µM]	MBC (μg/ml) ([4]; NCTC 9710) [µg/mL]	MIC (μM) ([4]; NCTC 9710) [µM]	MIC (μg/ml) ([4]; NCTC 9710) [µg/mL]	MIC (μg/ml) ([2]; ATCC 17648) [µg/mL]	MIC (μg/ml) (P. gingivalis) [µg/mL]	MBC (μg/ml) (S. gordonii Challis) [µg/mL]	MIC (μg/ml) (S. gordonii Challis) [µg/mL]	MBEC50 (μg/ml) [3] [µg/mL]	further results
CC(C)C[C@@H](NC(=O)[C@@H](CS)NC(=O)[C@@H](CCCCN)NC(=O)[C@@H](Cc1ccc(O)cc1)NC(=O)[C@@H](CO)NC(=O)[C@@H](CCCCN)NC(=O)[C@H](N)CCCNC(=N)N)C(=O)N[C@H](Cc1c[nH]cn1)C(=O)N[C@H](CCCCN)C(=O)N[C@H](CCCNC(=N)N)C(=O)N[C@H](CS)C(=O)N[C@H](CCCNC(=N)N)C(=O)O [MUC7 12-mer-D] (H-[dR][dK][dS][dY][dK][dC][dL][dH][dK][dR][dC][dR]-OH; N-terminus and C-terminus assumed)	resistant to the degradation	resistant to the degradation	12.5 (≈ 19.7 µg/mL)	12.5	>100	>158	100.0 (≈ 158 µg/mL)	25	50.0 (≈ 78.9 µg/mL)	100.0 (≈ 158 µg/mL)	50.0 (≈ 78.9 µg/mL)	>100	>158	>100	>158	–	–	–	–	–	MBC (μM) (P. gingivalis): 100.0 µM (≈ 158 µg/mL); MBC (μg/ml) (P. gingivalis): 79.0 µg/mL (≈ 50.1 µM)
AKRHHGYKRKFH [Hsn5 12-mer]	degraded	degraded	50.0	25	>100	>158	>100	>50	>100	>100	>100	>100	>158	>100	>158	>158	>158	>158	>158	–	MBEC50 (μg/ml) ([3]; GS-5 1-day biofilm, 24 h): >78 µg/mL
CC(C)C[C@H](NC(=O)[C@H](CS)NC(=O)[C@H](CCCCN)NC(=O)[C@H](Cc1ccc(O)cc1)NC(=O)[C@H](CO)NC(=O)[C@H](CCCCN)NC(=O)[C@@H](N)CCCNC(=N)N)C(=O)N[C@@H](Cc1c[nH]cn1)C(=O)N[C@@H](CCCCN)C(=O)N[C@@H](CCCNC(=N)N)C(=O)N[C@@H](CS)C(=O)N[C@@H](CCCNC(=N)N)C(=O)O [MUC7 12-mer-L] (H-RKSYKCLHKRCR-OH; N-terminus and C-terminus assumed)	degraded	degraded	12.5 (≈ 19.7 µg/mL)	12.5	>100	>158	>100	50	>100	100.0 (≈ 158 µg/mL)	50.0 (≈ 78.9 µg/mL)	>100	>158	>100	>158	>158	>158	–	–	–	–
GIGKFLHSAKKFGKAFVGEIMNS [Magainin-II]	–	–	50.0	25	–	–	–	–	–	>50	50.0	–	–	–	–	–	–	>123	123.5	>125	degradation by trypsin (trypsin; 0.5 h, 37° C., SDS-PAGE): degraded; degradation by saliva ([1]; unclarified saliva, 1 h, 37° C., SDS-PAGE): degraded; MIC (S. mutans; median of four strains): 61.7 µg/mL; MBC (μM) [2]: 100.0 µM; MBC (μg/ml) [2]: 246.9 µg/mL; MIC (μM) [2]: >100 µM; MIC (μg/ml) [2]: >246.9 µg/mL; eradication of 1-day developed biofilm ([3]; at or more than MBEC50): eradication was not observed; MBEC50 (μM) [3, 6]: >50 µM; MIC (μM) (P. gingivalis; [7]): >100 µM; MIC (μg/ml) (P. gingivalis; [7]): >246.9 µg/mL; MBC (μM) [4]: 50.0 µM; MBC (μg/ml) [4]: 123.5 µg/mL; MIC (μM) [4]: 50.0 µM; MIC (μg/ml) [4]: 123.5 µg/mL
[H]/N=C(\N/C(=N/[H])NCCCCCCNC(=N)NC(=N)Nc1ccc(Cl)cc1)Nc1ccc(Cl)cc1 [Chlorhexidine, Chlorhexidine digluconate]	–	–	–	–	–	–	–	–	–	–	–	–	–	–	–	–	–	–	–	>10	MBC (S. mutans; Streptococcus mutans): 2.5 µM and 1.2 µg/mL; MIC (S. mutans; Streptococcus mutans): 1.2 µg/mL; MIC (S. mutans; Streptococcus mutans, ATCC10449, 48 h): 2.5 µM; MBC ([2]; read-out: MBC): 10 µM; MBC ([2]; read-out: MBC (μg/ml)): 5.1 µg/mL; MIC ([2]; read-out: MIC): 10 µM; MIC ([2]; read-out: MIC (μg/ml)): 5.1 µg/mL; MBEC50 (μM) [3, 6]: >20 µM; MBC (P. gingivalis; median of two strains (W 50, 381), read-out: MBC): 2.5 µM; MBC (P. gingivalis; median of two strains (W 50, 381), read-out: MBC (μg/ml)): 1.3 µg/mL; MIC (P. gingivalis; median of two strains (W 50, 381), read-out: MIC): 2.5 µM; MIC (P. gingivalis; median of two strains (W 50, 381), read-out: MIC (μg/ml)): 1.2 µg/mL; MBC (S. gordonii Challis; read-out: MBC): 4 µM; MBC (S. gordonii Challis; read-out: MBC (μg/ml)): 2 µg/mL; MIC (S. gordonii Challis; read-out: MIC): 2.5 µM; MIC (S. gordonii Challis; read-out: MIC (μg/ml)): 1.2 µg/mL; MBC ([4]; read-out: MBC): 20 µM; MBC ([4]; read-out: MBC (μg/ml)): 10.1 µg/mL; MIC ([4]; read-out: MIC): 20 µM; MIC ([4]; read-out: MIC (μg/ml)): 10.1 µg/mL
